In publication PMC6934184, “Selective DNA-PKcs inhibition extends the therapeutic index of localized radiotherapy and chemotherapy” (The Journal of Clinical Investigation, 2019):

Target: T1, RET V804L (Homo sapiens, UniProt P07949, V804L)
T1 construct: purchased Thermo Fisher Scientific (Life Technologies) SelectScreen
Assay: SelectScreen Z'LYTE
Assay type: biochemical
Method in brief: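 NU5455 was profiled across the SelectScreen Broad panel of kinase activity and binding assays. Z'LYTE reactions such as CSF1R ran at apparent Km ATP, while the Adapta CAMK1 assay used ATP listed as 10. Values are given as percent.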

T1 sequence (P07949 29-1114 V804L): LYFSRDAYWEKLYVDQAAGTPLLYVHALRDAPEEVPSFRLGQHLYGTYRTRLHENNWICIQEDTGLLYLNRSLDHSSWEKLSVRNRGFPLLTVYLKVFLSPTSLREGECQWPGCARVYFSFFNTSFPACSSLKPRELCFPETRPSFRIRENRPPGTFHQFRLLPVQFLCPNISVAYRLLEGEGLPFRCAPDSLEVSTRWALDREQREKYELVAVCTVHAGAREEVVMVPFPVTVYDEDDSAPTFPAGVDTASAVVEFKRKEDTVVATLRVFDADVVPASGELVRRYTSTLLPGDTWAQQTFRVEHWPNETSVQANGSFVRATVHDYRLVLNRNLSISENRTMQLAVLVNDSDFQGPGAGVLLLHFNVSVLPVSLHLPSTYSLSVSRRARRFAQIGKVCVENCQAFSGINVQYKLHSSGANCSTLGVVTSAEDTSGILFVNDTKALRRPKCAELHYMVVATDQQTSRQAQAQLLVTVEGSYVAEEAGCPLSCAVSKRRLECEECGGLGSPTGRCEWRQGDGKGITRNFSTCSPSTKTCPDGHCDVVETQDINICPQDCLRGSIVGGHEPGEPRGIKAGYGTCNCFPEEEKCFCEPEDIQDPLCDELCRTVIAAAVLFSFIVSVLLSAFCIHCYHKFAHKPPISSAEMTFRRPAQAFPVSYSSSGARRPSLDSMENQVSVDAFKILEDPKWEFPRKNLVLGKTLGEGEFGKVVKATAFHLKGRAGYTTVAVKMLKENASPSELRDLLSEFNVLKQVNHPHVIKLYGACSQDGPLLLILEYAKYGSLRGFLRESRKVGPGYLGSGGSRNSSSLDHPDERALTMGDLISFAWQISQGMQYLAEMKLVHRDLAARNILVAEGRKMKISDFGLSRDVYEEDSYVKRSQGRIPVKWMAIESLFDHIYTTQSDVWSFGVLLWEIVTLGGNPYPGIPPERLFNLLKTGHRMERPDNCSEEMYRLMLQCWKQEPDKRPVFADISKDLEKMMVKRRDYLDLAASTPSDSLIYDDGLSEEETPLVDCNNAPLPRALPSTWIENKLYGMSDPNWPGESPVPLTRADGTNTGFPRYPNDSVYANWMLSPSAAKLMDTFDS

## CN(C(=O)CN1CCOCC1)c1ccc2sc3c(-c4cccc5c(=O)cc(N6CC7CCC(C6)O7)oc45)cccc3c2c1 [NU5455]
  inhibition at 1 µM: -9.1%
